US8946477B2, “Solid forms of an N-(phenylmethyl) propanamide derivative and processes of preparation” (Medichem, S.A., priority 2009, dated 2015)

Assay: Stability studies: storage under standard conditions, then XRD analysis
Assay type: physicochemical
Conditions: for XRD after storage (polymorphic form): stored at room temperature, air atmosphere

In the case of `COC[C@@H](NC(C)=O)C(=O)NCc1ccccc1` [Example 41, (2R)-2-(acetylamino)-3-methoxy-N-(phenylmethyl)propanamide], the “XRD after storage (polymorphic form)” value (normal pressure, storing time 295 days) is reported as “Form III”.
For `COC[C@@H](NC(C)=O)C(=O)NCc1ccccc1` [Example 42, (2R)-2-(acetylamino)-3-methoxy-N-(phenylmethyl)propanamide], the “XRD after storage (polymorphic form)” value (normal pressure, storing time 290 days) was “Form III”.
In the case of `COC[C@@H](NC(C)=O)C(=O)NCc1ccccc1` [amorphous lacosamide, (2R)-2-(acetylamino)-3-methoxy-N-(phenylmethyl)propanamide], the stability on storage (ambient conditions and air atmosphere for at least 250 days, more typically at least 300 days) is reported as “substantially stable” and the “XRD after storage (FIG. 13 vs FIG. 12)” value (room temperature, normal pressure, air atmosphere for 304 days (Example 63)) is reported as “retention of amorphous Form”.
For `COC[C@@H](NC(C)=O)C(=O)NCc1ccccc1` [lacosamide Form III, (2R)-2-(acetylamino)-3-methoxy-N-(phenylmethyl)propanamide], the “polymorphic stability on storage” value (ambient conditions and air atmosphere for at least 250 days, more typically at least 290 days) was “substantially no polymorphic interconversion is observed”.
